14 compounds from ChEMBL document CHEMBL1139830, “Glycosidic juvenogens: derivatives bearing alpha,beta-unsaturated ester functionalities” (2007) can be followed below.

The structures appear in SMILES notation. Calls of active or inactive are those of the source. The rule behind the calls is not given here.

In this experiment the test system is Pyrrhocoris apterus. Briefly: Juvenilizing effect assessed as inhibition of metamorphosis per individual in red firebug by drinking assay. The format is functional.
On to `CCOC(=O)/C=C(/C)COc1ccc(C[C@H]2CCCC[C@@H]2O)cc1` (stereo in doubt; Z-2a), for which the result was inactive.

`CCOC(=O)/C=C(/C)COc1ccc(C[C@H]2CCCC[C@@H]2O[C@@H]2O[C@H](CO)[C@H](O)[C@H](O)[C@H]2O)cc1`: the ID50 worked out at 3 µg.

For the compound `CCOC(=O)/C=C(\C)COc1ccc(C[C@@H]2CCCC[C@@H]2O[C@@H]2O[C@H](CO)[C@@H](O)[C@H](O)[C@H]2O)cc1`, the ID50 was found to be 0.0021 µg.

Turning to `CCOC(=O)/C=C(\C)COc1ccc(C[C@@H]2CCCC[C@@H]2O[C@@H]2O[C@H](CO)[C@H](O)[C@H](O)[C@H]2O)cc1`, the ID50 amounted to 0.11 µg.

Take `CCOC(=O)/C=C(/C)COc1ccc(C[C@H]2CCCC[C@@H]2O)cc1` (stereo in doubt; Z-2b): the outcome was inactive.

`CCOC(=O)/C=C(\C)COc1ccc(C[C@H]2CCCC[C@@H]2O)cc1`: the ID50 is 0.32 µg.

For `CCOC(=O)/C=C(\C)COc1ccc(C[C@@H]2CCCC[C@@H]2O)cc1`, the ID50 amounted to 0.05 µg.

Turning to `CCOC(=O)/C=C(/C)COc1ccc(C[C@@H]2CCCC[C@@H]2O[C@@H]2O[C@H](CO)[C@@H](O)[C@H](O)[C@H]2O)cc1`, the ID50 is 1.1 µg.

As for `CCOC(=O)/C=C(/C)COc1ccc(C[C@@H]2CCCC[C@@H]2O[C@@H]2O[C@H](CO)[C@H](O)[C@H](O)[C@H]2O)cc1`, the ID50 was 2.3 µg.

In the case of `CCOC(=O)/C=C(/C)COc1ccc(C[C@H]2CCCC[C@@H]2O[C@@H]2O[C@H](CO)[C@@H](O)[C@H](O)[C@H]2O)cc1` (stereo in doubt; Z-14b), the result was inactive.

Consider `CCOC(=O)/C=C(\C)COc1ccc(C[C@H]2CCCC[C@@H]2O[C@@H]2O[C@H](CO)[C@H](O)[C@H](O)[C@H]2O)cc1`, for which the ID50 came out at 1.9 µg.

For the compound `CCOC(=O)/C=C(/C)COc1ccc(C[C@H]2CCCC[C@@H]2O[C@@H]2O[C@H](CO)[C@@H](O)[C@H](O)[C@H]2O)cc1` (stereo in doubt; Z-14a), the result was inactive.

For the compound `CCOC(=O)/C=C(/C)COc1ccc(C[C@@H]2CCCC[C@@H]2O)cc1`, the ID50 is 18 µg.

Consider `CCOC(=O)/C=C(\C)COc1ccc(C[C@H]2CCCC[C@@H]2O[C@@H]2O[C@H](CO)[C@@H](O)[C@H](O)[C@H]2O)cc1`, for which the ID50 stood at 1.3 µg.
